Reference: patent US20030013660A1, “Dioxolane analogs for improved inter-cellular delivery” (Shire BioChem Inc., priority 2000, published 2003)
Like-named read-outs stand apart in the source and are kept apart here.

Legend:
Experiment in all cases: 3H-TdR (3H-thymidine) incorporation assay at 72 hr
MCF-7 = format: cell-based, Human; conditions: Homo sapiens
H-460 = format: cell-based, Human; conditions: Homo sapiens
CCRF-CEM = format: cell-based; conditions: Homo sapiens, CCRF-CEM
Procedure: (§1) Table of IC50 Values (μM) for Controls
(§2) Exposition of 24 hr to drug, wash, incubated for another 48 hr (total of 72 hr assay)
(§3) (3H-Thymidine Incorporation Assay)

CEM/dCK- = format: cell-based; conditions: for IC50: Homo sapiens, CCRF-CEM; for Factor* (Resistance Factor = Ratio of dCK- on Wild-type CCRF-CEM): ratio of IC50 CEM/dCK- to CCRF-CEM, 24 h
Procedure: as §1, §2, §3

SF-268 = format: cell-based, Human; conditions: Homo sapiens
[1] = MCF7, read-out: IC50 MCF-7 24 h, 24 h drug exposure, wash, another 48 hr, 3H-TdR incorporation at 72 hr
[2] = NCI-H460, read-out: IC50 H-460 24 h, 24 h drug exposure, wash, another 48 hr, 3H-TdR incorporation at 72 hr
[3] = read-out: IC50 CCRF-CEM 24 h, 24 h drug exposure, wash, another 48 hr, 3H-TdR incorporation at 72 hr
[4] = read-out: IC50 CEM/dCK- 24 h, 24 h drug exposure, wash, another 48 hr, deoxycytidine kinase-deficient CCRF-CEM
[5] = SF-268, read-out: IC50 SF-268 24 h, 24 h drug exposure, wash, another 48 hr, 3H-TdR incorporation at 72 hr
[6] = MCF7, read-out: IC50 MCF-7 24 h
[7] = NCI-H460, read-out: IC50 H-460 24 h
[8] = SF-268, read-out: IC50 SF-268 24 h

SMILES	IC50 (MCF-7; [1])	IC50 (H-460; [2])	IC50 (CCRF-CEM; [3])	IC50 (CEM/dCK-; [4])	Factor* (Resistance Factor = Ratio of dCK- on Wild-type CCRF-CEM) (CEM/dCK-)	IC50 (SF-268; [5])	IC50 (MCF-7; [6])	IC50 (H-460; [7])	IC50 (CCRF-CEM; read-out: IC50 CCRF-CEM 24 h)	IC50 (CEM/dCK-; read-out: IC50 CEM/dCK- 24 h)	IC50 (SF-268; [8])
CCOC(=O)Nc1ccn([C@@H]2CO[C@H](COC(=O)OCC)O2)c(=O)n1 [Compound 47, CARBONIC ACID 4-(4- ETHOXYCARBONYLAMINO-2- OXO-2H-PYRIMIDIN-1-YL)- [1,3]DIOXOLAN-2- YLMETHYL ESTER ETHYL ESTER]	2400 nM	1800 nM	2900 nM	> 100000 nM	34	38000 nM					
CC(C)(C)C(=O)Nc1ccn([C@@H]2CO[C@H](CO)O2)c(=O)n1 [Compound 49, N-[1-(2-HYDROXYMETHYL- [1,3]DIOXOLAN-4-YL)- CYTOSYL]-2,2-DIMETHYL- PROPIONAMIDE]	8800 nM	4500 nM	570 nM	> 100000 nM	175	7100 nM					
O=C(Nc1ccn([C@@H]2CO[C@H](CO)O2)c(=O)n1)OCc1ccccc1 [Compound 50, [1-(2-HYDROXYMETHYL- [1,3]DIOXOLAN-4-YL)- CYTOSYL]-CARBAMIC ACID BENZYL ESTER]	820 nM	1200 nM	170 nM	> 100000 nM	588	1300 nM					
O=C(Nc1ccn([C@@H]2CO[C@H](COC(=O)OCc3ccccc3)O2)c(=O)n1)OCc1ccccc1 [Compound 51, 4-(4- BENZYLOXYCARBONYLAMINOC YTOSYL)-[1,3]DIOXOLAN- 2-YLMETHYL BENZYL CARBONATE]	570 nM	830 nM	24 nM	47000 nM	1,958	860 nM					
Nc1ccn([C@@H]2CO[C@H](COC(=O)Cc3ccccc3)O2)c(=O)n1 [Compound 52, (2S,4S)-2- PHENYLACETOXYMETHYL-4- CYTOSIN-1′-YL-1,3- DIOXOLANE]					400		88 nM	6.8 nM	1.2 nM	480 nM	32 nM
COC(C)(C)OC[C@H]1OC[C@@H](n2ccc(N)nc2=O)O1 [Compound 54, 4-AMINO-1-[2-(1- METHOXY-1-METHYL- ETHOXYMETHYL)- [1,3]DIOXOLAN-4-YL]-1H- PYRIMIDIN-2-ONE]	500 nM	170 nM	120 nM	65000 nM	542	700 nM					
CCCCCCCC(=O)Nc1ccn([C@@H]2CO[C@H](CO)O2)c(=O)n1 [Compound 55, OCTANOIC ACID [1-(2- HYDROXYMETHYL- [1,3]DIOXOLAN-4-YL)-2- OXO-1, 2-DIHYDRO- PYRIMIDIN-4-YL]-AMIDE]	7.8 nM	29 nM	12 nM	64000 nM	5,333	47 nM					
CC(C)(C)C(=O)OCOC[C@H]1OC[C@@H](n2ccc(N)nc2=O)O1 [Compound 58, 2,2-DIMETHYL-PROPIONIC ACID 4-(4-AMINO-2-OXO- 2H-PYRIMIDIN-1-YL)- [1,3]DIOXOLAN-2- YLMETHOXYMETHYL ESTER]	16 nM	12 nM	14 nM	38000 nM	2,714	130 nM					
CCCCOC(=O)Nc1ccn([C@@H]2CO[C@H](CO)O2)c(=O)n1 [Compound 59, [1-(2-HYDROXYMETHYL- [1,3]DIOXOLAN-4-YL)-2- OXO-1,2-DIHYDRO- PYRIMIDIN-4-YL]- CARBAMIC ACID BUTYL ESTER]	190 nM	1400 nM	540 nM	> 100000 nM	185	690 nM					
COCCOCOC[C@H]1OC[C@@H](n2ccc(N)nc2=O)O1 [Compound 62, 4-AMINO-1-[2-(2- METHOXY- ETHOXYMETHOXYMETHYL)- [1,3]DIOXOLAN-4-YL]-1H- PYRIMIDIN-2-ONE]	1700 nM	890 nM	350 nM	> 100000 nM	288	4300 nM					
COc1ccc(OC(=O)Nc2ccn([C@@H]3CO[C@H](COC(=O)Oc4ccc(OC)cc4)O3)c(=O)n2)cc1 [Compound 63]					2,778		370 nM	110 nM	36 nM	> 100000 nM	76 nM
CCCCC(C)C(=O)OC[C@H]1OC[C@@H](n2ccc(/N=C/N(C)C)nc2=O)O1 (stereo partly drawn) [Compound 64, (2S,4S)-2-(2″-METHYL- HEXANOICOXYMETHYL)-4- (4′-NN- DIMETHYLAMINOMETHYLENE- CYTOSIN-1′-YL)-1,3- DIOXOLANE]	4.4 nM	1.7 nM	1.8 nM	3600 nM	2,000	7.1 nM					
CCCCC(CC)C(=O)OC[C@H]1OC[C@@H](n2ccc(/N=C/N(C)C)nc2=O)O1 (stereo partly drawn) [Compound 65, (2S,4S)-2-(2″-ETHYL- HEXANOICOXYMETHYL)-4- (4′-N,N- DIMETHYLAMINOMETHYLENE- CYTOSIN-1′-YL)-1,3- DIOXOLANE]	12 nM	11 nM	3.9 nM	26000 nM	6,667	33 nM					
CC(C)OC(=O)OCOC[C@H]1OC[C@@H](n2ccc(N)nc2=O)O1.O=C(O)C(F)(F)F [Compound 68, CARBONIC ACID 4-(4- AMINO-2-OXO-2H- PYRIMIDIN-1-YL)- [1,3]DIOXOLAN-2- YLMETHOXYMETHYL ESTER ISOPROPYL ESTER TRIFLUOROACETIC ACID SALT]	76 nM	19 nM	30 nM	> 100000 nM	3,333	210 nM					
CC(C(=O)OC[C@H]1OC[C@@H](n2ccc(/N=C/N(C)C)nc2=O)O1)c1ccccc1 (stereo partly drawn) [Compound 70, (2S,4S)-2-(2″- METHYLPHENYLACETOXY)MET HYL-4-(4′-N,N- DIMETHYLAMINOMETHYLENE- CYTOSIN-1′-YL)-1,3- DIOXOLANE]	47 nM	36 nM	8.8 nM	30000 nM	3,409	270 nM					
CCCCCOC(=O)Nc1ccn([C@@H]2CO[C@H](CO)O2)c(=O)n1 [Compound 71, [1-(2-HYDROXYMETHYL- [1,3]DIOXOLAN-4-YL)-2- OXO-1,2-DIHYDRO- PYRIMIDIN-4-YL]- CARBAMIC ACID PENTYL ESTER]	130 nM	310 nM	180 nM	> 100000 nM	556	810 nM					
COc1ccc(OC(=O)Nc2ccn([C@@H]3CO[C@H](CO)O3)c(=O)n2)cc1 [Compound 73, [1-(2-HYDROXYMETHYL- [1,3]DIOXOLAN-4-YL)-2- OXO-1,2-DIHYDRO- […]-4-YL]- CARBAMIC ACID 4- METHOXY-PHENYL ESTER]					990		260 nM	270 nM	100 nM	99000 nM	30 nM
CC(C)(C)OC(=O)N(CCCCCC(=O)Nc1ccn([C@@H]2CO[C@H](CO)O2)c(=O)n1)Cc1ccccc1 [Compound 77, Benzyl-{5-[1-(2-hydroxymethyl-[1,3]dioxolan-4-yl)-2-oxo-1,2-dihydro-pyrimidin-4-ylcarbamoyl]-pentyl}-carbamic acid tert-butyl ester]	30 nM	59 nM	54 nM	74000 nM	1,370	380 nM					
CC(C)(C)OC(=O)N(CCCCCC(=O)Nc1ccn([C@@H]2CO[C@H](COC(=O)CCCCCN(Cc3ccccc3)C(=O)OC(C)(C)C)O2)c(=O)n1)Cc1ccccc1 [Compound 78, 6-(Benzyl-tert-butoxycarbonyl-amino)-hexanoic acid 4-{4-[6-(benzyl-tert-butoxycarbonyl-amino)-hexanoylamino]-2-oxo-2H-pyrimidin-1-yl}-[1,3]dioxolan-2-ylmethyl ester]	45 nM	42 nM	37 nM	13000 nM	351	95 nM					
N=C(OC[C@H]1OC[C@@H](n2ccc(N)nc2=O)O1)C(Cl)(Cl)Cl [Compound 79]					4,500		170 nM	120 nM	14 nM		160 nM
COC(=O)CCCC(=O)Nc1ccn([C@@H]2CO[C@H](COC(=O)CCCC(=O)OC)O2)c(=O)n1 [Compound 80, PENTANEDIOIC ACID 4-[4- (4-METHOXYCARBONYL- BUTYRYLAMINO)-2-OXO- 2#H!-PYRIMIDIN-1-YL]- [1,3]DIOXOLAN-2- YLMETHYL ESTER METHYL ESTER]	670 nM	1800 nM	460 nM	> 100000 nM	217	3500 nM					
